Laboratory results: ChEMBL document CHEMBL1201862, “PubChem BioAssay data set” (2004)
Activity calls are given as the source filed them.

Legend:
[1] = target: Delta-type opioid receptor (Homo sapiens, UniProt P41143); experiment: Counterscreen for agonists of heterodimerization of the mu 1 (OPRM1) and delta 1 (OPRD1) opioid receptors: Luminescence-based cell-based high throughput dose response assay to identify agonists of OPRD1 homodimerization. [Related pubchem assays (depositor defined):AID504326, AID504355, AID504692, AID504904, AID504905]; format: functional
Mu-type opioid receptor = Mu-type opioid receptor (Homo sapiens, UniProt P35372); experiment: Counterscreen for agonists of heterodimerization of the mu 1 (OPRM1) and delta 1 (OPRD1) opioid receptors: Luminescence-based cell-based high throughput dose response assay to identify agonists of OPRM1 homodimerization.; format: functional;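 note: U2OS cells expressing OPRM1 and beta-arrestin as split beta-galactosidase partners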
[2] = target: 5-hydroxytryptamine receptor 5A (Homo sapiens, UniProt P47898); experiment: Counterscreen for agonists of OPRM1-OPRD1 heterodimerization: luminescence-based cell-based high throughput dose response assay to identify agonists of 5-hydroxytryptamine (serotonin) 5A receptor (HTR5A). [Related pubchem assays (depositor defined):AID504326, AID504355, AID504692, AID504904, AID504905]; format: functional
[3] = Luminescence Cell-Based Dose Retest to Confirm Inhibitors of Cancer Stem Cells. [Related pubchem assays (depositor defined):AID2717, AID2721]; format: functional; conditions: Homo sapiens
[4] = NIH-3T3 fibroblast cytotoxicity, dose response, cytotoxicity control, cell-based, fluorescence, Alamar Blue, secondary assay (AID 2327); format: functional;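 note: NIH-3T3 mouse fibroblasts cultured with fluconazole at 8 µg/mL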
[5] = target: Peroxisome proliferator-activated receptor gamma/Nuclear receptor coactivator 1 (Homo sapiens, UniProt P37231); experiment: (§1) TR-FRET dose response biochemical High Throughput Screening assay for agonists of the steroid receptor coactivator 1 (SRC-1) recruitment by the peroxisome proliferator-activated receptor gamma (PPAR gamma): non-selective agonists. [Related pubchem assays (depositor defined):AID1300, AID1808, AID504735, AID631]; format: protein assay
[6] = target: Peroxisome proliferator-activated receptor gamma/Nuclear receptor coactivator 3 (Homo sapiens, UniProt P37231); experiment: as §1, with “3 (SRC-3)” for “1 (SRC-1)”, “assays: 1301 (Confirmation screen.), 1048 (Primary screen.)]” for “assays (depositor defined):AID1300, AID1808, AID504735, AID631]”; format: functional
[7] = C. albicans growth with fluconazole, confirmation, fluorescence, retest (AID 2467); format: functional, cell-based
[8] = target: T1, Serine/threonine-protein phosphatase (Candida dubliniensis (strain CD36 / CBS 7987 / NCPF 3949 / NRRLY-17841) (Yeast), UniProt B9W6M3); experiment: calcineurin pathway inhibitors in yeast reporter, dose response, S. cerevisiae, CDRE-lacZ, luminescence, secondary (AID 2388); format: functional, cell-based;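 note: yeast reporter cells carrying a calcineurin-responsive lacZ construct stimulated with calcium chloride; luminescent beta-galactosidase reporter signal in whole cells rather than isolated phosphatase activity; potency for inhibition where a drop in reporter signal means calcineurin blockade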
T1 sequence (B9W6M3 whole entry): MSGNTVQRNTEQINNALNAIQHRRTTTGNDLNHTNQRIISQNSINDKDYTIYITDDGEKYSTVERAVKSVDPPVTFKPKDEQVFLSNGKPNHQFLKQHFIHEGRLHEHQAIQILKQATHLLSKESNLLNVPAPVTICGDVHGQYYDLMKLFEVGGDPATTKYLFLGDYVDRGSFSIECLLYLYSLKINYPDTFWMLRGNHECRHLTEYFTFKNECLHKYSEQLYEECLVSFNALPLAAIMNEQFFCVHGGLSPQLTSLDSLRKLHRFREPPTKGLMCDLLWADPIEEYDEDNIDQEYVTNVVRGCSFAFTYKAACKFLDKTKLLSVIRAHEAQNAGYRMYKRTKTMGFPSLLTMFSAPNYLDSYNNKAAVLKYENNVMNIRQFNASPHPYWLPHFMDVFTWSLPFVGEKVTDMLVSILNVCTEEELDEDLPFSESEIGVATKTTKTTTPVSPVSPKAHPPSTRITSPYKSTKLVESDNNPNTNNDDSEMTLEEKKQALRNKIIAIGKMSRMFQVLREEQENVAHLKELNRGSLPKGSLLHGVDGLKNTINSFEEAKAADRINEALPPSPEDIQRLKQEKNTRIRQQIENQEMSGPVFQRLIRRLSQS

[9] = target: Peroxisome proliferator-activated receptor gamma/Nuclear receptor coactivator 2 (Homo sapiens, UniProt P37231); experiment: TR-FRET dose response biochemical High Throughput Screening assay for agonists of the steroid receptor coactivator 2 (SRC-2) recruitment by the peroxisome proliferator-activated receptor gamma (PPAR gamma): non-selective agonists. [Related pubchem assays: 1297, 1032 ]; format: functional
Troponin, cardiac muscle = Troponin, cardiac muscle (Homo sapiens, UniProt P19429+P45379+P63316); experiment: Fluorescence-based biochemical high throughput dose response assay for activators of the calcium sensitivity of cardiac Regulated Thin Filaments (RTF). [Related pubchem assays (depositor defined):AID493008, AID493018, AID504382, AID504383]; format: protein-complex assay
[10] = target: ATP-dependent molecular chaperone HSP82 (Candida albicans (strain WO-1) (Yeast), UniProt C4YTQ8); experiment: loss of DOC-induced GRE-beta-galactosidase reporter signal, dose response, Hsp90 inhibitor project, S. cerevisiae, luminescence (AID 2400); format: functional, cell-based;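 note: beta-galactosidase luminescence from glucocorticoid response element reporter as proxy for Hsp90 function; inhibitor potency where signal loss means Hsp90 inhibition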
Escherichia coli = experiment: microbe, parasite or virus in culture

Chain of 5-hydroxytryptamine receptor 5A (P47898 whole entry): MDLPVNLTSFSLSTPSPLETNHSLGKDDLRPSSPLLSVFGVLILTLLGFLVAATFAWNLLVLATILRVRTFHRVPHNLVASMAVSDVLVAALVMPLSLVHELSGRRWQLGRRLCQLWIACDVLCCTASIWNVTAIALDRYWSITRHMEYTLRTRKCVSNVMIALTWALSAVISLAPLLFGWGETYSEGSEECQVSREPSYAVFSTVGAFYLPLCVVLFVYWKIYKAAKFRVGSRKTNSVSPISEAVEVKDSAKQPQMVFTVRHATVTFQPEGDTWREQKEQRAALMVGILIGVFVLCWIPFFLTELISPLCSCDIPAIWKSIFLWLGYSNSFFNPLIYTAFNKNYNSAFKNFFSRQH
Chain of Mu-type opioid receptor (P35372 whole entry): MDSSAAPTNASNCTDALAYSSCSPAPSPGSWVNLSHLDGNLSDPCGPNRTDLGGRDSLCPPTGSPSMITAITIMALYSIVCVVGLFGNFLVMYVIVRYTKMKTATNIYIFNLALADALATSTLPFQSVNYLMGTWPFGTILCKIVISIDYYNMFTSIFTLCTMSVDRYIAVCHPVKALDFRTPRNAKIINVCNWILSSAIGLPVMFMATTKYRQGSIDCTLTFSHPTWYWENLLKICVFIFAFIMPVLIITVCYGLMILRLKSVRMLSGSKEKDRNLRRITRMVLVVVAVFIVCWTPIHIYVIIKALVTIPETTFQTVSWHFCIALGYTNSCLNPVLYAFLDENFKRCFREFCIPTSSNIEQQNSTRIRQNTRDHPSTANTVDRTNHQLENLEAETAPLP
Chain of Delta-type opioid receptor (P41143 whole entry): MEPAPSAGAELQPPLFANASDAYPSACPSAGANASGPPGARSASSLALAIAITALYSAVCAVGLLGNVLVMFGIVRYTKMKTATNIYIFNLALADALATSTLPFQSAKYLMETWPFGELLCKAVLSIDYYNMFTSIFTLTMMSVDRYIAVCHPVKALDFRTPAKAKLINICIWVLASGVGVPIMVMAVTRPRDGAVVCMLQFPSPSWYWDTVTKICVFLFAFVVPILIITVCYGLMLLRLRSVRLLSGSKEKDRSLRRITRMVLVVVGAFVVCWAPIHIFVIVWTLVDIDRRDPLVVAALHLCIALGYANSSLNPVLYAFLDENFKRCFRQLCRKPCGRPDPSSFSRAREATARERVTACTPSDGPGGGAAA
Chain of ATP-dependent molecular chaperone HSP82 (C4YTQ8 whole entry): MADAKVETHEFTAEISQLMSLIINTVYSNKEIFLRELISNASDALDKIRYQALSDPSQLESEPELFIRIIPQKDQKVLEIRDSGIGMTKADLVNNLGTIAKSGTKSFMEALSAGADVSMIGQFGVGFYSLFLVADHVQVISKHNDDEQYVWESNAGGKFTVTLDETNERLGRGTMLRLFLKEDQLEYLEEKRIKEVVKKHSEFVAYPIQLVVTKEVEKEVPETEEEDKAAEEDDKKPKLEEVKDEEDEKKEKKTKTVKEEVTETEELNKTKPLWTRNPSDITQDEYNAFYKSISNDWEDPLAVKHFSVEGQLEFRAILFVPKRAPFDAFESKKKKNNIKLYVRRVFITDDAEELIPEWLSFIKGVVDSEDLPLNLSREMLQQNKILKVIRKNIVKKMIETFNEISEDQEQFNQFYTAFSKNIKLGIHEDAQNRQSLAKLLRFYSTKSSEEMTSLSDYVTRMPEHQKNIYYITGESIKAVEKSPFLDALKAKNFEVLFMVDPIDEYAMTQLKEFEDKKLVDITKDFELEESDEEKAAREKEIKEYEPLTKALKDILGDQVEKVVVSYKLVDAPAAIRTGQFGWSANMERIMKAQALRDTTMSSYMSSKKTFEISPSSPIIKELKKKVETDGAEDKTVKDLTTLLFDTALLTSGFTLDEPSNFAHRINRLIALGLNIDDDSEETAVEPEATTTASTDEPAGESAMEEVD
Chain of Peroxisome proliferator-activated receptor gamma/Nuclear receptor coactivator 1 (P37231 whole entry): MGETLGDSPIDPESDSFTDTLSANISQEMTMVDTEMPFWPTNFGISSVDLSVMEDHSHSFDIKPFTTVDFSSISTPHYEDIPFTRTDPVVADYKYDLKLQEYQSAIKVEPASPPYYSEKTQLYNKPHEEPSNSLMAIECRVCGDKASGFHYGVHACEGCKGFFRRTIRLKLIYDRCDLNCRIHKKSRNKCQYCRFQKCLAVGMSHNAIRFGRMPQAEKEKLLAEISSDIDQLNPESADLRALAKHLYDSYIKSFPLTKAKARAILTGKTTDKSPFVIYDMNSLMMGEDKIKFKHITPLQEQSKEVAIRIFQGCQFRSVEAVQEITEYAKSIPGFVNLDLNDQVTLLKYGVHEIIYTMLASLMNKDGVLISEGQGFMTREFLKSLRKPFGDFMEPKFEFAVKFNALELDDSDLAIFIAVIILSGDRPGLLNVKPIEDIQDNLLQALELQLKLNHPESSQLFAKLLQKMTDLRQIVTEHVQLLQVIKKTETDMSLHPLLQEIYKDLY
Chain of Peroxisome proliferator-activated receptor gamma/Nuclear receptor coactivator 1 (Q15788 whole entry, further chain): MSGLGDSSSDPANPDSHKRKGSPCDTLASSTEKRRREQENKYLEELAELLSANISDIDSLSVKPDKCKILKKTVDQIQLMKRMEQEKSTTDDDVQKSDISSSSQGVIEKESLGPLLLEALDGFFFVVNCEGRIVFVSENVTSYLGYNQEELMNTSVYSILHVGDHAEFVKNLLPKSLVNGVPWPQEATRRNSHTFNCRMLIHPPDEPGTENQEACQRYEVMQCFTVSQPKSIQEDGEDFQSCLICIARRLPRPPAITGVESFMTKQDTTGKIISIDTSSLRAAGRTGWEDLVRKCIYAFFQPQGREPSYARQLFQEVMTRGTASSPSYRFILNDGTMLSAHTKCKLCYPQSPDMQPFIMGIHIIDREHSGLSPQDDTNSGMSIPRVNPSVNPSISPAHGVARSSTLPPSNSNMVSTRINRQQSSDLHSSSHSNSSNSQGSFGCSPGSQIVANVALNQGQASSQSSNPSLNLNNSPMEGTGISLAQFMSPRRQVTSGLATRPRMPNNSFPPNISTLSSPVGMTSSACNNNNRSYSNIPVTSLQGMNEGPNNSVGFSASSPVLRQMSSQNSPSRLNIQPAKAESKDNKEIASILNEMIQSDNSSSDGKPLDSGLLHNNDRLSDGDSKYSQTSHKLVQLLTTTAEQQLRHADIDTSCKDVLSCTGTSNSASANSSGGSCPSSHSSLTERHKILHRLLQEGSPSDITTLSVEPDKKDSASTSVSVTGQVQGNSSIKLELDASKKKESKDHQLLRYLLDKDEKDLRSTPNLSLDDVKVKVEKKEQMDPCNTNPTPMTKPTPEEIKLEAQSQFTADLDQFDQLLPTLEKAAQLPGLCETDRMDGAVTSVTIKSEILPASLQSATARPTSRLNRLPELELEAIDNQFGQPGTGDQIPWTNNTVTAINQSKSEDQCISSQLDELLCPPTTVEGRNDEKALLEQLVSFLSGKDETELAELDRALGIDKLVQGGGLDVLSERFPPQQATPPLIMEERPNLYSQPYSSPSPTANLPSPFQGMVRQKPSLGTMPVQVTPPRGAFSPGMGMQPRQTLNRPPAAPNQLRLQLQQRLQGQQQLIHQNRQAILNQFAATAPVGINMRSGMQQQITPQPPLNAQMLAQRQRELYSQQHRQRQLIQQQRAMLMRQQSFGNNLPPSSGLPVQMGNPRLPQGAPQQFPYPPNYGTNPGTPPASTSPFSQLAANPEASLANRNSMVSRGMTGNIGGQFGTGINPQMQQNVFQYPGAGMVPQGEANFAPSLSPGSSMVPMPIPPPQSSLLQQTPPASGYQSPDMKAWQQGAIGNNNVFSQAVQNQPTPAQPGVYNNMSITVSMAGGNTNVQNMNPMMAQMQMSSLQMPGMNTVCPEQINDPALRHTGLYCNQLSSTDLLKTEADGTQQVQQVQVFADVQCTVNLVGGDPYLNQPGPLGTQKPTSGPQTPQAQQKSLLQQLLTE

Q: Which EC50 [1] does the source give for `Cc1ccc2[nH]c(SC(C(=O)Nc3ccc(F)cc3)c3ccccc3)nc2c1` (stereo unspecified) here?
A: Its EC50 is > 92.5 µM (inactive).

Q: What about the EC50 (Mu-type opioid receptor) of the same molecule?
A: Its EC50 is > 92.5 µM (inactive).

Q: What about the EC50 [2] of the same molecule?
A: The EC50 was > 92.5 µM (inactive).

Q: With `CC1(NC(=O)CC(c2ccccc2)(c2ccccc2)c2ccccc2)CCN(CCCc2ccccc2)C1=O` (stereo unspecified) as the molecule, how does the AC50 [3] read?
A: The AC50 was 5.42 µM (active).

Q: And the EC50 [1]?
A: The EC50 was > 92.5 µM (inactive).

Q: And the EC50 (Mu-type opioid receptor)?
A: Its EC50 is > 92.5 µM (inactive).

Q: What about the EC50 [2] of the same molecule?
A: Its EC50 is > 92.5 µM (inactive).

Q: With `Cc1c(O)c2c3c(cccc3c1O)C(=O)N(c1ccccc1)C2=O` as the molecule, how does the EC50 [4] read?
A: Its EC50 is > 150 µM (inactive).

Q: And the EC50 [5]?
A: Its EC50 is > 79.4 µM (inactive).

Q: What about the EC50 [6] of the same molecule?
A: Its EC50 is > 79.4 µM (not active).

Q: And the EC50 [7]?
A: Its EC50 is 0.492 µM (active).

Q: What about the EC50 [8] of the same molecule?
A: The EC50 was > 180 µM (inactive).

Q: What about the EC50 [9] of the same molecule?
A: Its EC50 is > 79.4 µM (not active).

Q: What about the EC50 (Troponin, cardiac muscle) of the same molecule?
A: The EC50 was 2.9 µM (active).

Q: And the EC50 [10]?
A: The EC50 was 82.8 µM (active).

Q: With `CC1CN(S(=O)(=O)c2ccc(C(=O)Nc3ccccc3F)cc2)CC(C)O1` (stereo unspecified) as the molecule, how does the AC50 (Escherichia coli) read?
A: Its AC50 is 25.1 µM (active).
